Reference: patent US20080051387A1, “TETRAHYDROPYRIDO[3,4-D]PYRIMIDINES AND RELATED ANALOGUES” (priority 2006, published 2008)

Target: T1, chimeric human H3 receptor (Homo sapiens, UniProt Q9Y5N1)
T1 construct: rat Galpha-i2 (Gnai2, rat); made in house; host or cells: Sf9 insect cells (baculovirus); P2 membranes
Assay: Chimeric human H3 receptor screening GTP binding assay (inhibition of histamine-stimulated GTP-gamma35S binding, Example 8)
Assay type: biochemical
Conditions: 1 h; assay described in Example 8; symbol "!" in column headed Ki; read-out: Ki ("!": percent inhibition of agonist-induced GTP-gammaS binding to H3)
Method: This Example illustrates a representative screening assay for evaluating inhibition of histamine-stimulated GTP-gamma^35S binding. Such GTP binding activity can be used to identify H3 antagonists and inverse agonists. A compound analyzed in this assay is referred to herein as a “test compound,” and the initial identification of antagonists and inverse agonists is performed using a test compound concentration of 4 μM.
Four independent baculoviral stocks (one directing the expression of the chimeric human H3 receptor and three directing the expression of each of the three subunits of a heterotrimeric G-protein) are used to infect a culture of Sƒ9 cells as described above. P2 membranes are prepared as described above, and are resuspended by Dounce homogenization (tight pestle) in GTP binding assay buffer (50 mM Tris pH 7.4, 120 mM NaCl, 5 mM MgCl2, 2 mM EGTA, 1 mg/ml BSA, 0.2 mg/ml bacitracin, 0.02 mg/ml aprotinin, 0.01 mg/ml saponin, 10 μM GDP) and added to assay tubes at a concentration of 35 μg protein/reaction tube. Non-radiolabeled test compounds are added to separate reactions at a concentration of 4 μM along with 1 μM histamine (agonist). Reactions are initiated by the addition of 125 pM GTP-gamma^35S with a final assay volume of 0.20 ml.
After a 60-min incubation at room temperature, reactions are terminated by vacuum filtration over GF/C filters (pre-soaked in 50 mM Tris pH 7.4, 120 mM NaCl plus 0.1% BSA) followed by washing with ice-cold buffer (50 mM Tris pH 7.4, 120 mM NaCl). The amount of receptor-bound (and thereby membrane-bound) GTP-gamma^35S is determined by measuring the bound radioactivity, preferably by liquid scintillation spectrometry of the washed filters. Non-specific binding is determined using 10 uM GTP-gammaS and typically represents less than 5 percent of total binding. After subtraction of non-specific binding, data is expressed as percent inhibition of 1 μM histamine signal.
Neutral antagonists are those test compounds that reduce the histamine-stimulated GTP binding activity towards, but not below, baseline levels. In contrast, in the absence of added histamine, inverse agonists reduce the GTP binding activity of the receptor-containing membranes below baseline. Any test compound that elevates GTP binding activity above baseline in the absence of added histamine in this assay is defined as having agonist activity.

T1 sequence (Q9Y5N1 with tags, fused parts or gaps): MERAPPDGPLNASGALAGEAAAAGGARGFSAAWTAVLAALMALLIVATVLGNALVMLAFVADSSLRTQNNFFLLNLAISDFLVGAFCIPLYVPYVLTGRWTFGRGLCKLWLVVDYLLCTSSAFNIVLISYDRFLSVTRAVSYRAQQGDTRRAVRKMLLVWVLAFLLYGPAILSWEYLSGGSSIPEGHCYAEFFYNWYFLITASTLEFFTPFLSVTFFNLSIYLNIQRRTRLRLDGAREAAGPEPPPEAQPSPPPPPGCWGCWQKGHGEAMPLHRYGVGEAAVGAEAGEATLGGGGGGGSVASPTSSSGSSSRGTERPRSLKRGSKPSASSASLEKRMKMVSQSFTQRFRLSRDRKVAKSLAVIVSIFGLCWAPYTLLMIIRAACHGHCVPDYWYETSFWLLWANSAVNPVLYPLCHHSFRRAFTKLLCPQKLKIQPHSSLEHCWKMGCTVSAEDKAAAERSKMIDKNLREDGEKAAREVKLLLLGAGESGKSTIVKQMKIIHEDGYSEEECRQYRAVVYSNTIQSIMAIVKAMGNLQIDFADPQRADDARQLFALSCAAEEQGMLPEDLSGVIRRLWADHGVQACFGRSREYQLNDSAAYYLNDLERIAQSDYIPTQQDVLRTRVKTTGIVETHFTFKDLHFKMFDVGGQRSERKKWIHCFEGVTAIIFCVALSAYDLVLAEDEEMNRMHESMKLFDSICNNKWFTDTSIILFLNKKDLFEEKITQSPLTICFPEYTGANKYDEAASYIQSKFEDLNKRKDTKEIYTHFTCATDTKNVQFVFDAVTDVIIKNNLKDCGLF

Inhibition at 4 µM, ≥ 90%:
O=C(c1cc(Cl)cc(Cl)c1)N1CCc2cnc(N3CCN(C4CCC4)CC3)nc2CC1 [Compound 398, 2-(4-cyclobutylpiperazin-1-yl)-7-(3,5-dichlorobenzoyl)-6,7,8,9-tetrahydro-5H-pyrimido[4,5-d]azepine]
COc1ccccc1/C=C/C(=O)N1CCc2cnc(N3CCN(C4CCC4)CC3)nc2CC1 [Compound 568, 2-(4-cyclobutylpiperazin-1-yl)-7-[(2E)-3-(2-methoxyphenyl)prop-2-enoyl]-6,7,8,9-tetrahydro-5H-pyrimido[4,5-d]azepine]
O=C(c1nsc(Cl)c1Cl)N1CCc2cnc(N3CCN(C4CCC4)CC3)nc2CC1 [Compound 526, 2-(4-cyclobutylpiperazin-1-yl)-7-[(4,5-dichloroisothiazol-3-yl)carbonyl]-6,7,8,9-tetrahydro-5H-pyrimido[4,5-d]azepine]
O=C(c1csnn1)N1CCc2cnc(N3CCN(C4CCC4)CC3)nc2CC1 [Compound 527, 2-(4-cyclobutylpiperazin-1-yl)-7-(1,2,3-thiadiazol-4-ylcarbonyl)-6,7,8,9-tetrahydro-5H-pyrimido[4,5-d]azepine]
O=C(/C=C/c1cccc(C(F)(F)F)c1)N1CCc2cnc(N3CCN(C4CCC4)CC3)nc2CC1 [Compound 555, 2-(4-cyclobutylpiperazin-1-yl)-7-{(2E)-3-[3-(trifluoromethyl)phenyl]prop-2-enoyl}-6,7,8,9-tetrahydro-5H-pyrimido[4,5-d]azepine]
COc1ccc(C(=O)N2CCc3cnc(N4CCN(C5CCC5)CC4)nc3CC2)c(OC)n1 [Compound 542, 2-(4-cyclobutylpiperazin-1-yl)-7-[(2,6-dimethoxypyridin-3-yl)carbonyl]-6,7,8,9-tetrahydro-5H-pyrimido[4,5-d]azepine]
O=C(c1ccc(F)c(F)c1)N1CCc2cnc(N3CCN(C4CCC4)CC3)nc2CC1 [Compound 390, 2-(4-cyclobutylpiperazin-1-yl)-7-(3,4-difluorobenzoyl)-6,7,8,9-tetrahydro-5H-pyrimido[4,5-d]azepine]
COc1ccc(Cl)cc1C(=O)N1CCc2cnc(N3CCN(C4CCC4)CC3)nc2CC1 [Compound 420, 7-(5-chloro-2-methoxybenzoyl)-2-(4-cyclobutylpiperazin-1-yl)-6,7,8,9-tetrahydro-5H-pyrimido[4,5-d]azepine]
COc1ccc(C(=O)N2CCc3cnc(N4CCN(C5CCC5)CC4)nc3CC2)c(Cl)c1OC [Compound 425, 7-(2-chloro-3,4-dimethoxybenzoyl)-2-(4-cyclobutylpiperazin-1-yl)-6,7,8,9-tetrahydro-5H-pyrimido[4,5-d]azepine]
O=C(c1sc2ccccc2c1Cl)N1CCc2cnc(N3CCN(C4CCC4)CC3)nc2CC1 [Compound 457, 7-[(3-chloro-1-benzothien-2-yl)carbonyl]-2-(4-cyclobutylpiperazin-1-yl)-6,7,8,9-tetrahydro-5H-pyrimido[4,5-d]azepine]
O=C(c1ccc(Oc2cc(Cl)cc(Cl)c2)o1)N1CCc2cnc(N3CCN(C4CCC4)CC3)nc2CC1 [Compound 472, 2-(4-cyclobutylpiperazin-1-yl)-7-[5-(3,5-dichlorophenoxy)-2-furoyl]-6,7,8,9-tetrahydro-5H-pyrimido[4,5-d]azepine]

Same assay, conditions: 1 h; assay of Example 8; symbol "!" in column headed Ki; read-out: percent inhibition of agonist-induced GTP-gammaS binding to H3

Inhibition at 4 µM, ≥ 90%:
COc1ccc(CN2CCc3cnc(N4CCN(C5CCC5)CC4)nc3CC2)c(OC)c1 [Compound 243, 2-(4-cyclobutylpiperazin-1-yl)-7-(2,4-dimethoxybenzyl)-6,7,8,9-tetrahydro-5H-pyrimido[4,5-d]azepine]
CCCCC(=O)N1CCc2cnc(N3CCN(C4CCC4)CC3)nc2CC1 [Compound 207, 2-(4-cyclobutylpiperazin-1-yl)-7-pentanoyl-6,7,8,9-tetrahydro-5H-pyrimido[4,5-d]azepine]
c1cc(N2CCCC2)ccc1CN1CCc2cnc(N3CCN(C4CCC4)CC3)nc2CC1 [Compound 267, 2-(4-cyclobutylpiperazin-1-yl)-7-(4-pyrrolidin-1-ylbenzyl)-6,7,8,9-tetrahydro-5H-pyrimido[4,5-d]azepine]
O=C(Cc1ccc(F)cc1Cl)N1CCc2cnc(N3CCN(C4CCC4)CC3)nc2CC1 [Compound 302, 7-[(2-chloro-4-fluorophenyl)acetyl]-2-(4-cyclobutylpiperazin-1-yl)-6,7,8,9-tetrahydro-5H-pyrimido[4,5-d]azepine]
CCOc1ccc(Br)cc1/C=C/C(=O)N1CCc2cnc(N3CCN(C4CCC4)CC3)nc2CC1 [Compound 587, 7-[(2E)-3-(5-bromo-2-ethoxyphenyl)prop-2-enoyl]-2-(4-cyclobutylpiperazin-1-yl)-6,7,8,9-tetrahydro-5H-pyrimido[4,5-d]azepine]
Cc1cc(C(=O)N2CCc3cnc(N4CCN(C5CCC5)CC4)nc3CC2)nn1C [Compound 203, 2-(4-cyclobutylpiperazin-1-yl)-7-[(1,5-dimethyl-1H-pyrazol-3-yl)carbonyl]-6,7,8,9-tetrahydro-5H-pyrimido[4,5-d]azepine]
O=C(C(c1ccccc1)C1CCCC1)N1CCc2cnc(N3CCN(C4CCC4)CC3)nc2CC1 (stereo not shown) [Compound 353, 2-(4-cyclobutylpiperazin-1-yl)-7-[cyclopentyl(phenyl)acetyl]-6,7,8,9-tetrahydro-5H-pyrimido[4,5-d]azepine]
O=C(c1ccc(Oc2ccccc2)cc1)N1CCc2cnc(N3CCN(C4CCC4)CC3)nc2CC1 [Compound 372, 2-(4-cyclobutylpiperazin-1-yl)-7-(4-phenoxybenzoyl)-6,7,8,9-tetrahydro-5H-pyrimido[4,5-d]azepine]
O=C(C1CCCO1)N1CCc2cnc(N3CCN(C4CCC4)CC3)nc2CC1 (stereo not shown) [Compound 220, 2-(4-cyclobutylpiperazin-1-yl)-7-(tetrahydrofuran-2-ylcarbonyl)-6,7,8,9-tetrahydro-5H-pyrimido[4,5-d]azepine]
Cc1cc(C)cc(C(=O)N2CCc3cnc(N4CCN(C5CCC5)CC4)nc3CC2)c1 [Compound 359, 2-(4-cyclobutylpiperazin-1-yl)-7-(3,5-dimethylbenzoyl)-6,7,8,9-tetrahydro-5H-pyrimido[4,5-d]azepine]

Same assay, conditions: symbol ! in Ki; test compound 4 μM, 1 μM histamine; read-out: percent inhibition of agonist-induced GTP-gammaS binding to H3

Inhibition at 4 µM, ≥ 90%:
CC(C)c1ccc(C(C)N2CCc3c(ncnc3N3CCN(C4CCC4)CC3)C2)cc1 (stereo not shown) [Compound 115, 4-(4-cyclobutylpiperazin-1-yl)-7-[1-(4-isopropylphenyl)ethyl]-5,6,7,8-tetrahydropyrido[3,4-d]pyrimidine]
Cc1ccc(C(C)N2CCc3c(ncnc3N3CCN(C4CCC4)CC3)C2)cc1 (stereo not shown) [Compound 106, 4-(4-cyclobutylpiperazin-1-yl)-7-[1-(4-methylphenyl)ethyl]-5,6,7,8-tetrahydropyrido[3,4-d]pyrimidine]
COc1cccc(CN2CCc3c(ncnc3N3CCN(C4CCC4)CC3)C2)c1OC [Compound 94, 4-(4-cyclobutylpiperazin-1-yl)-7-(2,3-dimethoxybenzyl)-5,6,7,8-tetrahydropyrido[3,4-d]pyrimidine]
Fc1cccc(CN2CCc3c(ncnc3N3CCN(C4CCC4)CC3)C2)c1 [Compound 67, 4-(4-cyclobutylpiperazin-1-yl)-7-(3-fluorobenzyl)-5,6,7,8-tetrahydropyrido[3,4-d]pyrimidine]
c1ccc(CN2CCc3ncnc(N4CCN(C5CCCC5)CC4)c3C2)cc1 [Compound 141, 6-benzyl-4-(4-cyclopentylpiperazin-1-yl)-5,6,7,8-tetrahydropyrido[4,3-d]pyrimidine]
Cc1cccc(CN2CCc3ncnc(N4CCN(C5CCC5)CC4)c3CC2)c1 [Compound 148, 4-(4-cyclobutylpiperazin-1-yl)-7-(3-methylbenzyl)-6,7,8,9-tetrahydro-5H-pyrimido[4,5-d]azepine]
c1cc(N2CCCC2)ncc1CN1CCc2nc(N3CCN(C4CCC4)CC3)ncc2C1 [Compound 643, 2-(4-cyclobutylpiperazin-1-yl)-6-[(6-pyrrolidin-1-ylpyridin-3-yl)methyl]-5,6,7,8-tetrahydropyrido[4,3-d]pyrimidine]
